Like-named read-outs stand apart in the source and are kept apart here.
Experiments:
[1] = system: HCT116 cells; test: Temporal label-free (LFQ) proteomics of HCT116 cells treated with p97 inhibitors; assay type: cell-based; conditions: 4 μM UPCDC-30245, 2 μM CB-5083, 4 μM NMS-873
Description: This percentage was calculated by dividing the number of overlapping proteins by the sum of all DE proteins identified by p97 KD and/or inhibitor treatment. HCT116 cells were treated with 4 μM UPCDC-30245, 2 μM CB-5083 or 4 μM of NMS-874 for the indicated time points, n=2.
To explore the temporal proteomic profiles of p97 inhibition, HCT116 cells were treated with DMSO, and p97 inhibitors (CB-5083, NMS-873 or UPCDC-30245) for 2 h, 6 h, 10 h, 18 h, or 24 h in duplicate. […] To compare the proteomic profile of p97 shRNA KD to that of different p97 inhibitors, DE proteins identified through p97 KD were compared with those identified under different inhibitor treatments (p<0.05) at each time point. […] To reveal the cellular effects common to both p97 KD and p97 inhibitors, overlapping DE proteins across different timepoints for each inhibitor treatment were combined.

[2] = system: HCT116 cells; test: TMT labeling proteomics of HCT116 cells treated with MG132, CB-5083 or NMS-873; assay type: cell-based; conditions: for Log2 FC Baculoviral IAP repeat-containing protein 5 (BIRC5) / Log2 FC Cell division cycle protein 20 homolog (CDC20) / Log2 FC F-box only protein 5 (FBXO5) / Log2 FC G1/S-specific cyclin-D1 (CCND1) / Log2 FC Geminin (GMNN) / Log2 FC M-phase inducer phosphatase 2 (CDC25B) / Log2 FC Mitotic checkpoint serine/threonine-protein kinase BUB1 (BUB1) / Log2 FC Myc proto-oncogene protein (MYC) / Log2 FC Origin recognition complex subunit 6 (ORC6) / Log2 FC Ribonucleoside-diphosphate reductase subunit M2 (RRM2) / Log2 FC Securin (PTTG1): compound vs DMSO; for Four XBP1 activated genes/proteins (DNAJB11, SRPR, SRPRB, SYVN1), Log2FC: HCT116, 24 h of treatment, p<0.05
Description: HCT116 cells were treated with 1 μM MG132, 2 μM CB-5083 or 4 μM of NMS-874 for 6 h or 24 h, n=2. […] M, C and N represents MG132, CB-5083 and NMS-873, respectively.
As a step toward understanding the differential effects of inhibiting p97 and the proteasome in cancer treatment, the effect of inhibiting p97 was compared to proteasome inhibition using tandem mass tag (TMT) 16-plexed labelling. This technique allowed for capture of alterations in the proteome after exposure to MG132 (proteasome inhibitor) and p97 inhibitors (CB-5083 and NMS-873). […] Samples were pooled together, fractionated into 8 fractions using high pH reverse chromatography, and analyzed using the highly accurate RTS-SPS-MS3 method.

[3] = system: cyclin D1; conditions: Parisi et al. [71]; cited from earlier work
[4] = system: HCT116 cells; test: Cell cycle analysis (DNA content); assay type: cell-based; conditions: HCT116, 24 h
Description: FIG. 7A depicts cell cycle analysis of HCT116 cells after 24 h of treatments with DMSO, 1 μM of MG132 (MG) or 2 μM of CB-5083. […] Data were from TMT labeling proteomics. M, C and N indicates MG132, CB-5083 and NMS-873 treatment, respectively. […] HCT116 cells were treated for 24 h with DMSO, 1 μM of MG132 (MG), 2 μM of CB-5083 (CB) or 4 μM of NMS-873 (NMS), n=3.

[5] = system: Securin; conditions: HT29, pretreated with MG132 for 1 h, then 2 μM CB-5083 with 50 μM CHX
Description: (§1) The concentration of MG132, CB-5083 and Baf A1 was 1 μM, 2 μM and 10 μM, respectively. […] FIGS. 13D-13E depict the half-life of Securin in HCT116 cells. HCT116 cells were treated with 1 μM of MG132, 2 μM of CB-5083, 1 μM of MG132 plus 2 μM of CB-5083 or DMSO. […] Cells were pretreated with […] for 1 h. […] For FIGS. 13B-13G, D, B, M, C and N represents DMSO, Baf A1, MG132, CB-5083 and NMS-873, respectively. Data are shown as mean±SD. Statistical analysis was performed using one-way ANOVA.

[6] = system: HCT116 cells; conditions: HCT116, 6 h treatment, 2 μM CB-5083
Description: as §1

[7] = system: cancer cell proliferation; conditions: ref [22]; cited from earlier work
[8] = system: Securin; test: Securin degradation (CHX chase) in HCT116 cells; assay type: cell-based; conditions: HCT116, pretreated with MG132 for 1 h, then 2 μM CB-5083 with 50 μM CHX
Description: as §1

[9] = system: HCT116 tumor cells; conditions: mouse xenograft models implanted with HCT116 tumor cells, ref [22]; cited from earlier work
[10] = system: cyclin D1; test: Cyclin D1 level and degradation (co-treatment, CHX chase); assay type: cell-based; conditions: HCT116, 6 hours; MG132 1 μM, CB-5083 2 μM, Baf A1 10 μM
Description: FIGS. 12A-12C depicts Western blots detecting the effects of p97 inhibitors and MG132 on cell cycle proteins in HT29 and HCT116 cells. […] Then, 50 μM of CHX was added and cells were collected at 0 h, 0.5 h, and 1 h. FIG. 12C depicts half-life of cyclin D1 in HCT116 cells. HCT116 cells were pre-treated with 5 μM of CB-5083 or DMSO for 30 minutes before adding 50 μM of CHX, and cells were collected at 0, 10, 20, 30 min (n=3), * indicates p<0.05 according to unpaired t-test.
as §1
Cells were co-treated with CB-5083 and either the proteasome inhibitor MG132 or the autophagy inhibitor Bafilomycin A1 (Baf A1).

Structure (SMILES)	UPR proteins and those linked to protein processing in the ER [1]	Log2 FC Baculoviral IAP repeat-containing protein 5 (BIRC5) ([2]; HCT116, 6 h treatment)	Log2 FC Cell division cycle protein 20 homolog (CDC20) ([2]; HCT116, 6 h treatment)	Log2 FC F-box only protein 5 (FBXO5) ([2]; HCT116, 6 h treatment)	Log2 FC G1/S-specific cyclin-D1 (CCND1) ([2]; HCT116, 6 h treatment)	Log2 FC Geminin (GMNN) ([2]; HCT116, 6 h treatment)	Log2 FC M-phase inducer phosphatase 2 (CDC25B) ([2]; HCT116, 6 h treatment)	Log2 FC Mitotic checkpoint serine/threonine-protein kinase BUB1 (BUB1) ([2]; HCT116, 6 h treatment)	Log2 FC Myc proto-oncogene protein (MYC) ([2]; HCT116, 6 h treatment)	Log2 FC Origin recognition complex subunit 6 (ORC6) ([2]; HCT116, 6 h treatment)	Log2 FC Ribonucleoside-diphosphate reductase subunit M2 (RRM2) ([2]; HCT116, 6 h treatment)	Log2 FC Securin (PTTG1) ([2]; HCT116, 6 h treatment)	Four XBP1 activated genes/proteins (DNAJB11, SRPR, SRPRB, SYVN1), Log2FC [2]	Log2 FC Baculoviral IAP repeat-containing protein 5 (BIRC5) ([2]; HCT116, 24 h treatment)	Log2 FC Cell division cycle protein 20 homolog (CDC20) ([2]; HCT116, 24 h treatment)	Log2 FC F-box only protein 5 (FBXO5) ([2]; HCT116, 24 h treatment)	Log2 FC G1/S-specific cyclin-D1 (CCND1) ([2]; HCT116, 24 h treatment)	Log2 FC Geminin (GMNN) ([2]; HCT116, 24 h treatment)	Log2 FC M-phase inducer phosphatase 2 (CDC25B) ([2]; HCT116, 24 h treatment)	Log2 FC Mitotic checkpoint serine/threonine-protein kinase BUB1 (BUB1) ([2]; HCT116, 24 h treatment)	further results
Cc1cc(OCc2nnc(SC3CCCC3)n2-c2cccnc2)ccc1-c1ccc(S(C)(=O)=O)cc1 [NMS-873, 3-[3-cyclopentylsulfanyl-5-[[3-methyl-4-(4-methylsulfonylphenyl)phenoxy]methyl]-1,2,4-triazol-4-yl]pyridine]	upregulated	−0.5	−0.6	−1.1	−1.8	−0.6	−1.6	−0.4	−1.1	−0.5	−0.3	−1.2	significantly upregulated	−2.0	−2.8	−2.4	−3.2	−1.8	−2.2	−2.1	Log2 FC Myc proto-oncogene protein (MYC) ([2]; HCT116, 24 h treatment): −1.1; Log2 FC Origin recognition complex subunit 6 (ORC6) ([2]; HCT116, 24 h treatment): −0.6; Log2 FC Ribonucleoside-diphosphate reductase subunit M2 (RRM2) ([2]; HCT116, 24 h treatment): −2.7; Log2 FC Securin (PTTG1) ([2]; HCT116, 24 h treatment): −2.9
c1ccc(CNc2nc(NCc3ccccc3)c3ccccc3n2)cc1 [DBeQ, N^2,N^4-Bis(phenylmethyl)-2,4-quinazolinediamine]																					Cyclin D1 degradation [3]: promotes cyclin D1 degradation
Cc1cc2c(C(N)=O)cccc2n1-c1nc2c(c(NCc3ccccc3)n1)COCC2 [CB-5083]	upregulated	−0.5	−0.4	−0.8	−1.4	−0.4	−1.1	−0.3	−0.5	−0.4	−0.2	−0.9	significantly upregulated	−0.8	−1.5	−1.0	−2.0	−1.1	−1.6	−1.1	Potency in reducing G0/G1 and increasing G2/M distribution compared to MG132 [4]: less potent; Distribution of cells in the G0/G1 phase ([4]; 1 μM MG132, 2 μM CB-5083): reduced distribution in the G0/G1 phase; Degradation of Securin after MG132 pretreatment [5]: slightly accelerated the degradation of Securin; RNA level of CDC20 [6]: downregulated; Log2 FC Myc proto-oncogene protein (MYC) ([2]; HCT116, 24 h treatment): −0.7; Log2 FC Origin recognition complex subunit 6 (ORC6) ([2]; HCT116, 24 h treatment): −0.3; Log2 FC Ribonucleoside-diphosphate reductase subunit M2 (RRM2) ([2]; HCT116, 24 h treatment): −1.1; Log2 FC Securin (PTTG1) ([2]; HCT116, 24 h treatment): −1.9; Cancer cell proliferation [7]: strongly inhibited cancer cell proliferation; Degradation of Securin after MG132 pretreatment [8]: slightly accelerated the degradation of Securin; Tumor growth [9]: efficacious in inhibiting tumor growth
CC(C)N1CCN(CCNC2CCN(c3cccc(-c4cc5cc(F)ccc5[nH]4)c3)CC2)CC1 [UPCDC-30245, 1-(3-(5-Fluoro-1H-indol-2-yl)phenyl)-N-(2-(4-isopropylpiperazin-1-yl)ethyl)piperidin-4-amine]	not																				
CO/C1=C\C(C)=C\[C@@H](C)[C@@H](O)[C@@H](C)C/C(C)=C/C=C/[C@H](OC)[C@@H]([C@@H](C)[C@@H](O)[C@H](C)[C@@]2(O)C[C@@H](O)[C@H](C)[C@@H](C(C)C)O2)OC1=O [Baf A1, Bafilomycin A1]																					Effect on CB-5083 mediated cyclin D1 downregulation (co-treatment) [10]: no effect on cyclin D1 levels
